Among the test systems are SNB-75 CNS; HOP-92 NSCLC; TK-10 renal; SK-MEL-5 melanoma; UACC-62 melanoma; NCI-H226 lung; HT29 colon; CAKI-1 renal; T-47D breast; MALME-3M melanoma.
Experiment in all cases: growth of human tumour cells (NCI), 48 h

SMILES strings stand for the structures.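 Cells were grown in 96-well plates and exposed to each compound for 48 hours at five concentrations; endpoints were interpolated linearly between bracketing concentrations, or set to the highest concentration if not reached. TGI is the concentration that stops growth completely.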

As to `CC(C)=CCCC(C)(OC1OC(CO)C(O)C(O)C1O)C1CCC2(C)C1C(O)CC1C3(C)CCC(O)C(C)(C)C3C(OC3OC(CO)C(O)C(O)C3OC3OC(C)C(O)C(O)C3O)CC12C` (stereo not given) (tested in a mixture with another compound), the TGI in the assay with SNB-75 CNS, in the assay with HOP-92 NSCLC, in the assay with TK-10 renal, in the assay with SK-MEL-5 melanoma, in the assay with UACC-62 melanoma and in the assay with NCI-H226 lung was over 75 µM in each case. Further, the TGI in the assay on HT29 colon, in the assay on CAKI-1 renal and in the assay on T-47D breast was over 75 µM in each case.
`CSc1nc(=S)[nH]c2c1c(C)nn2-c1ccccc1`: the TGI in the assay on MALME-3M melanoma was 41.5 µM; in the assay with HOP-92 NSCLC it was 35.7 µM; in the assay with TK-10 renal it was over 100 µM; in the assay on SK-MEL-5 melanoma, 27.8 µM; with UACC-62 melanoma it was 35.3 µM; in the assay with NCI-H226 lung, 51.2 µM. In addition, the values for the TGI in the assay with HT29 colon, in the assay on CAKI-1 renal and in the assay on T-47D breast were over 100 µM, 40.3 µM and 62.5 µM, respectively.
With `CSc1ncnc2c1cnn2Cc1cnnn1COCC(O)CO` (stereo not given), the TGI in the assay on TK-10 renal, in the assay on SK-MEL-5 melanoma, in the assay on UACC-62 melanoma, with NCI-H226 lung, with HT29 colon and in the assay with CAKI-1 renal was over 100 µM throughout. In addition, the TGI in the assay with T-47D breast is over 100 µM.
`Cc1ccc(S(=O)c2cccs2)cc1` (stereo not given): the TGI in the assay on MALME-3M melanoma, in the assay with HOP-92 NSCLC, with TK-10 renal, with NCI-H226 lung, with HT29 colon and in the assay on T-47D breast was over 100 µM each time.
As to `O=C(NCCN1CCCCC1)c1ccc(Br)cc1`, the TGI in the assay on SNB-75 CNS, in the assay on MALME-3M melanoma, in the assay on HOP-92 NSCLC, in the assay with TK-10 renal, in the assay with SK-MEL-5 melanoma and in the assay with HT29 colon was over 100 µM in each case. For the same compound, the TGI with CAKI-1 renal and in the assay with T-47D breast was over 100 µM throughout.
In the case of `CC(C)(C)OC(=O)NC1CCCC1C(=O)C1=CCCC1` (stereo not given), the TGI in the assay with SNB-75 CNS, in the assay on HOP-92 NSCLC, with SK-MEL-5 melanoma, in the assay with UACC-62 melanoma, with NCI-H226 lung and in the assay with HT29 colon was over 100 µM each time. In addition, the TGI in the assay on T-47D breast is over 100 µM.
In the case of `COC(=O)C1(NC(=O)C(Cc2ccccc2)N(C(=O)OC(C)(C)C)C(=O)OC(C)(C)C)CCCC1` (stereo not given), the TGI in the assay with SNB-75 CNS, in the assay with HOP-92 NSCLC, in the assay on TK-10 renal, with SK-MEL-5 melanoma, in the assay on UACC-62 melanoma and with NCI-H226 lung was over 100 µM throughout. The compound also showed a TGI in the assay with T-47D breast of over 100 µM.
As for `CN(C)CCNc1ccc2ncn3c4ccccc4c(=O)c1c23`, the TGI in the assay with SNB-75 CNS is 16 µM; with MALME-3M melanoma it was 10.2 µM; in the assay on HOP-92 NSCLC, 9.51 µM; in the assay on TK-10 renal it was 46.7 µM; in the assay with SK-MEL-5 melanoma, 11.5 µM; in the assay with UACC-62 melanoma, 12.3 µM. The values for the TGI with NCI-H226 lung, in the assay with HT29 colon and in the assay on CAKI-1 renal were 6.05 µM, 10.6 µM and 12.9 µM, respectively.
As for `COc1nc(N=P(c2ccccc2)(c2ccccc2)c2ccccc2)cc(=O)n1C`, the TGI in the assay on SNB-75 CNS, with HOP-92 NSCLC, in the assay with TK-10 renal, in the assay with SK-MEL-5 melanoma, with UACC-62 melanoma and with NCI-H226 lung was over 100 µM in each case. The TGI in the assay on HT29 colon, with CAKI-1 renal and in the assay with T-47D breast was over 100 µM throughout.
For the compound `Cn1c(=O)c2[nH]c(N=O)nc2n(C)c1=O`, the TGI in the assay with SNB-75 CNS, in the assay with MALME-3M melanoma, in the assay with TK-10 renal, in the assay on UACC-62 melanoma, with NCI-H226 lung and in the assay with HT29 colon was over 100 µM in each case. Moreover, the TGI with CAKI-1 renal and in the assay with T-47D breast was over 100 µM throughout.
With `COC(=O)c1ccc2c(c1)CC1(C2)Cc2cc3c(cc2C1)CCC3`, the TGI with SNB-75 CNS, in the assay on MALME-3M melanoma, with HOP-92 NSCLC, in the assay on TK-10 renal, in the assay on SK-MEL-5 melanoma and in the assay with HT29 colon was over 100 µM throughout. Further, the TGI in the assay with CAKI-1 renal and with T-47D breast was over 100 µM throughout.
For `CCCCCCCC/C=C1\CCC(CN(C)C)C1=O` (stereo not given), the TGI with SNB-75 CNS was 14.1 µM; in the assay with MALME-3M melanoma it was 14.3 µM; in the assay on HOP-92 NSCLC, 8.02 µM; with TK-10 renal it was 6.03 µM; in the assay with SK-MEL-5 melanoma, 21.7 µM; in the assay on UACC-62 melanoma, 19.6 µM. Also, the figures for the TGI in the assay with NCI-H226 lung, with HT29 colon and in the assay with CAKI-1 renal were 37.3 µM, 12.5 µM and 10 µM, respectively.
`O=[N+]([O-])c1ccc(SN=S=NSc2cccc(SN=S=NSc3ccc([N+](=O)[O-])cc3)c2)cc1`: the TGI in the assay with MALME-3M melanoma was over 100 µM; in the assay with HOP-92 NSCLC, over 100 µM; with SK-MEL-5 melanoma, over 100 µM; in the assay on UACC-62 melanoma, over 100 µM; in the assay with HT29 colon, over 100 µM; with CAKI-1 renal, 41.1 µM. In the assay with T-47D breast, this compound displayed a TGI of 38.9 µM.
Take `Nc1nncc2c1c(Br)cn2C1OC(CO)C(O)C1O` (stereo not given): the TGI in the assay on SNB-75 CNS is over 100 µM; in the assay on MALME-3M melanoma, over 100 µM; with HOP-92 NSCLC it was 62.3 µM; in the assay on TK-10 renal, over 100 µM; with SK-MEL-5 melanoma, over 100 µM; in the assay with UACC-62 melanoma, over 100 µM. The TGI in the assay with NCI-H226 lung, in the assay with HT29 colon and in the assay on CAKI-1 renal was over 100 µM throughout.
For the compound `CNC(=O)c1n[nH]n(C2CCCCC2)c1=S`, the TGI in the assay with SNB-75 CNS, in the assay on MALME-3M melanoma, in the assay on HOP-92 NSCLC, in the assay with SK-MEL-5 melanoma, in the assay with UACC-62 melanoma and in the assay with NCI-H226 lung was over 100 µM each time. The TGI in the assay with HT29 colon, with CAKI-1 renal and in the assay on T-47D breast was over 100 µM each time.
In the case of `CN(C)CCN(C)P12(Oc3ccccc3O1)Oc1c(Cl)c(Cl)c(Cl)c(Cl)c1O2`, the TGI in the assay with SNB-75 CNS was 82 µM; with MALME-3M melanoma it was over 100 µM; in the assay with HOP-92 NSCLC, 92.7 µM; with TK-10 renal, over 100 µM; with SK-MEL-5 melanoma, over 100 µM; in the assay on UACC-62 melanoma, over 100 µM. Moreover, the TGI in the assay on NCI-H226 lung, in the assay with HT29 colon and with T-47D breast was over 100 µM throughout.

(Values after PubChem BioAssay (NCI).)
